According to patent US20050232924A1, “Antibodies and/or conjugates thereof which bind to the amino terminal fragment of urokinase, compositions and uses thereof” (Attenuon LLC, priority 2003, published 2005):

Key:
MDA-MB-231 cells [1] = test: MTT proliferation assay; type: cell-based, human; conditions: 10 μM; FIG. 13A
Method: The ability of ATN-291-Dox to inhibit proliferation of MDA-MB-231 cells was tested in an MTT assay. […] A dose titration was performed with the ATN-291-Dox conjugate. As shown in FIG. 10B the conjugate inhibited proliferation with an IC-50 of ˜1.6 μM.

MDA-MB-231 cells [2] = test: Distribution of Dox by fluorescence microscopy; type: cell-based, human; conditions: 1.6 μM, 24 h; FIG. 14
Method: To further characterize the ATN-291-Dox conjugates the distribution of Dox was monitored by fluorescence microscopy. MDA-MB-231 cells grown on glass chamber slides were incubated with either 1.6 μM Dox or 1.6 μM ATN-291-Dox for 24 h under the same conditions used for the MTT assay. Following incubation, the supernatant was removed and the cells washed extensively with PBS. Cells were fixed in paraformaldehyde, mounted and observed by fluorescence microscopy.

SMILES: COc1cccc2c1C(=O)c1c(O)c3c(c(O)c1C2=O)C[C@@](O)(C(=O)CO)C[C@@H]3O[C@H]1C[C@H](N)[C@H](O)[C@H](C)O1 [Dox, doxorubicin]
- effect on cell proliferation (MDA-MB-231 cells [1]): significantly inhibited proliferation
- cellular localization of Dox fluorescence (MDA-MB-231 cells [2]): primarily localized to the nucleus of treated cells
